The values that follow come from patent US4746509A, “Transdermal medicament” (Rhone-Poulenc Sante, priority 1983, dated 1988).

The structures appear in SMILES notation. Where a name gives a salt, the structure may show the parent alone.

The data set can be described thus: Solubility in water. The data set is classed as physicochemical.

For `CCCC(=O)Nc1ccc(OCC(O)CNC(C)C)c(C(C)=O)c1` (stereo not shown) [acebutolol hydrochloride], the solubility in water entry is “soluble in water”.
